Assay results as given in ChEMBL document CHEMBL5126642, “Triazine-Based Covalent DNA-Encoded Libraries for Discovery of Covalent Inhibitors of Target Proteins” (ACS Med Chem Lett, 2022).

Key:
[1] = target: Tyrosine-protein kinase BTK (Homo sapiens, UniProt Q06187); assay: Inhibition of BTK (unknown origin) using TK peptide as substrate incubated for 1 hr in presence of ATP by HTRF assay
[2] = target: T1, Tyrosine-protein kinase JAK3 (Homo sapiens, UniProt P52333); assay: Inhibition of JAK3 (unknown origin) using TK peptide as substrate incubated for 1 hr in presence of ATP by HTRF assay
T1 sequence (P52333 whole entry): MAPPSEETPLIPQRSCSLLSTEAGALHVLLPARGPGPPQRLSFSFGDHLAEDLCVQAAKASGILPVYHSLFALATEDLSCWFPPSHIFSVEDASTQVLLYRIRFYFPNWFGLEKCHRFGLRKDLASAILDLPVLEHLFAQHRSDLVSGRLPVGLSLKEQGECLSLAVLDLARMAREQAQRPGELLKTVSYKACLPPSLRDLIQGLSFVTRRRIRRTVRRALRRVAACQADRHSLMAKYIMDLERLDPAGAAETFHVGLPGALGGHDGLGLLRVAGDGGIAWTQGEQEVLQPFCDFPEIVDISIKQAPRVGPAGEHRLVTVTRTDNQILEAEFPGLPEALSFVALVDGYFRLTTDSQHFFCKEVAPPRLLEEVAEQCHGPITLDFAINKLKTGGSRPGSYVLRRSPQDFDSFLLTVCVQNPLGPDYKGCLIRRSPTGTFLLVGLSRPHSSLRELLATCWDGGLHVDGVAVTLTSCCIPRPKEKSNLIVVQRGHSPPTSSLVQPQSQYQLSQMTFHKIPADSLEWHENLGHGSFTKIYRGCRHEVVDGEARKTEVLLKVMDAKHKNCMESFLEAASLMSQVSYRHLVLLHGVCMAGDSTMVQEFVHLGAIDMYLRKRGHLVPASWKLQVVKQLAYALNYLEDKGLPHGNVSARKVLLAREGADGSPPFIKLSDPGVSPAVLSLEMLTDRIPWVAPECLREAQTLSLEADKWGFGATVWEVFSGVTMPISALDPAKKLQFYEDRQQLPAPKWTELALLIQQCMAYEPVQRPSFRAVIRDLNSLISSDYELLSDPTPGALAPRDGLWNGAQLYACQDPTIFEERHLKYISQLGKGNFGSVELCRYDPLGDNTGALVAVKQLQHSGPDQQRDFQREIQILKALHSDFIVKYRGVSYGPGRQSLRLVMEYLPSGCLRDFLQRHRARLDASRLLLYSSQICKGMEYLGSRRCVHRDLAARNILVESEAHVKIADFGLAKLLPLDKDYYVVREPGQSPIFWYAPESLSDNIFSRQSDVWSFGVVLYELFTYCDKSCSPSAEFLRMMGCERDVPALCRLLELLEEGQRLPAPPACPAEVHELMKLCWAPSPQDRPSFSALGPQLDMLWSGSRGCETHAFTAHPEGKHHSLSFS

[3] = target: Peptidyl-prolyl cis-trans isomerase NIMA-interacting 1 (Homo sapiens, UniProt Q13526); assay: Inhibition of GST-tagged Pin1 (unknown origin) using Suc-AEPF-pNA peptide as substrate incubated for 3 hrs
Peptidyl-prolyl cis-trans isomerase NIMA-interacting 1, sequence (Q13526 whole entry): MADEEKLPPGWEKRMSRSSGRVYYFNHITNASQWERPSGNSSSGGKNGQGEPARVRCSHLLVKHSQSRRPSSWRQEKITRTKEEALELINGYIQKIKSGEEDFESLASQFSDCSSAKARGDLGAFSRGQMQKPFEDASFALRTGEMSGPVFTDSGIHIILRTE

Tyrosine-protein kinase BTK, sequence (Q06187 whole entry): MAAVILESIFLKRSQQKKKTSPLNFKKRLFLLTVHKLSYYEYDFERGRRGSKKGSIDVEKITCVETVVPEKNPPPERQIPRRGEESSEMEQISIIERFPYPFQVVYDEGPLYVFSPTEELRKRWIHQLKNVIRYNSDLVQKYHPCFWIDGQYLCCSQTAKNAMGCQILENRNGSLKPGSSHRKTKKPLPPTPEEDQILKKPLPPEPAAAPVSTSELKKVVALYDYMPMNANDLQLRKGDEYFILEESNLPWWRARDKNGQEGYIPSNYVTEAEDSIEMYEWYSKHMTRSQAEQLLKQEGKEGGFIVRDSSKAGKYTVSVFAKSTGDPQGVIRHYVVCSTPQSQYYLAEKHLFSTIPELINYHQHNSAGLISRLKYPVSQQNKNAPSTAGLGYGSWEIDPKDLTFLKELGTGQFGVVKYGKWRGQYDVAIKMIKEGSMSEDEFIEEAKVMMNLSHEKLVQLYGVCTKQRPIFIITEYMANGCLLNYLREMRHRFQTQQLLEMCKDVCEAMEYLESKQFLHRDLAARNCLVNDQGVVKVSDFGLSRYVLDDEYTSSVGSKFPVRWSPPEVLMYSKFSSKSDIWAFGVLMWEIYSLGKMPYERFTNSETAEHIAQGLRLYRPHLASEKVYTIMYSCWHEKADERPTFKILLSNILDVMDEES

`C=CC(=O)Nc1cccc(CNc2nc(NC)nc(Nc3cc(C(C)(C)C)[nH]n3)n2)c1` was tested, and the IC50 [1] was 98.3 nM and the IC50 [2] was 6.16 nM.

With `CNc1nc(NCC(NC(=O)CCl)c2ccccc2)nc(Nc2cc(C(C)(C)C)[nH]n2)n1` (stereo not given) the IC50 [1] was 638 nM and the IC50 [2] was 32.6 nM.

Work on `CNc1nc(NCc2cccc(NC(=O)CCl)c2)nc(Nc2cc(C(C)(C)C)[nH]n2)n1` yielded an IC50 [1] of 1900 nM and an IC50 [2] of 8.97 nM.

`CNc1nc(Nc2ccc3cn[nH]c3c2)nc(N2CC3CC2CN3C(=O)CCl)n1` (stereo not given) was tested, and the IC50 [3] was 1690 nM.

`C=CC(=O)N1CC2CC1CN2c1nc(NC)nc(Nc2cc[nH]n2)n1` (stereo not given) gave an IC50 [1] of 16.1 nM and an IC50 [2] of 699 nM.

With `CNc1nc(NC(c2ccccc2)c2cccc(S(C)(=O)=O)c2)nc(N2CCN(C(=O)CCl)CC2)n1` (stereo not given) the IC50 [3] was 3200 nM.
